Assay type in all cases: cell-based
The test system of one assay is MCF-7 (breast cancer). Kind of assay: Cancer cell growth inhibition, WST-1 colorimetry. As to conditions: Homo sapiens, MCF7, MCF-7, 48 hours. As to the method: (§1) Cultured human cancer cells were added to a 96-well plate. On the following day, a solution of each of the compounds prepared in Examples 13, 23, 29, 36, and 114 (in five concentrations resulting from 10-fold stepwise dilution: 10^−4, 10^−5, 10^−6, 10^−7, or 10^−8 M) was added, followed by incubation for 48 hours. Subsequently, % growth of the cells was measured through colorimetry by use of a WST-1 (Dojindo) reagent for measurement of cell count. From the measurement data, % growth was calculated by use of the following equation, and 50% growth inhibitory concentration (GI50) was calculated from the dose-response curve of each compound: % growth={[(OD as measured after 48 hours from addition of compound)−(OD at time zero)]/[(OD of control as measured after 48 hours)−(OD at time zero)]}×100.
For orientation: Formazan colour is commonly taken as a measure of viable cells.

The subject of the next assay is HCT-15 (colon cancer). Nature of the assay: Cancer cell growth inhibition, WST-1 colorimetry. The settings on record: Homo sapiens, HCT-15, 48 hours. The procedure:
as §1

A further assay deals with MKN-74 (stomach cancer). Kind of assay: Cancer cell growth inhibition, WST-1 colorimetry. As to conditions: Homo sapiens, MKN-74, 48 hours. As to the method: as §1
The next assay concerns MKN-45 (stomach cancer). Kind of assay: Cancer cell growth inhibition, WST-1 colorimetry. The settings on record: Homo sapiens, MKN-45, 48 hours. The procedure:
as §1

Assay [1] concerns cultured human cancer cells. Kind of assay: Cancer cell growth inhibition, WST-1 colorimetry, overall statement. As to conditions: result in words, 48 hours. As to the method: as §1
The test system of assay [2] is Human umbilical venous endothelial cells (HUVECs). Nature of the assay: Gene expression analysis (GeneChip HuGene FL array) in TNFα-stimulated HUVECs. As to conditions: Example 10 at 1 μM, TSA at 10 μM. As to the method: Human umbilical venous endothelial cells (HUVECs) were placed in 10 cm dishes (3×10^5 cells/dish). Two days thereafter, Trichostatin A (TSA, produced by Upstate) dissolved in dimethyl sulfoxide (DMSO) and the compound prepared in Example 10 dissolved in DMSO were individually added to a final concentrations of 10 μM and 1 μM, respectively. Each sample was stimulated with TNFα (final concentration: 10 ng/mL, Genzyme-Techne). Four hours later, total RNA was extracted with ISOGEN (Nippon Gene Co., Ltd.). The subsequent procedure was performed in accordance with the manufacturer's protocol (Affymetrix). From the thus obtained total RNA, mRNA was purified by a conventional method. cDNA was synthesized from the purified mRNA, and then biotin-labeled cRNA was synthesized by in vitro transcription. The cRNA was purified and subjected to heat treatment for fragmentation. The fragmented cRNA was used in gene expression analysis.
Method of gene expression analysis: The thus-prepared fragmented cRNA was injected to a HuGene human FL array (Affymetrix), and allowed to hybridize for 16 hours at 45° C. After washing, streptavidin labeled with phycoerythrin, and biotinylated anti-streptavidin antibody were added to each sample in order to cause reaction. Gene expression information was read by use of a dedicated scanner for GeneChip™ (Hewlett Packard). The thus-obtained information was analyzed with GeneChip Software (Affymetrix) for comparison in terms of level of expression.

[3] abbreviates: out of 52 genes increased twice or more by TNFα.

Structures can show the parent of a compound that is named as a salt.

For orientation: GI50 means the concentration giving 50% growth inhibition.

For the compound `COc1ccc(N(Cc2cncc(-c3cc(OC)c(OC)c(OC)c3)c2)C2CCN(Cc3ccnc(-c4cc(OC)c(OC)c(OC)c4)c3)CC2)cc1` [Example 13, 4-[N-(4-methoxyphenyl)-N-[[5-(3,4,5-trimethoxyphenyl)pyridin-3-yl]methyl]amino]-1-[[2-(3,4,5-trimethoxyphenyl)pyridin-4-yl]methyl]piperidine Trihydrochloride], the GI50 in the assay with MCF-7 (breast cancer) is 700 nM; with HCT-15 (colon cancer) it was 800 nM; in the assay with MKN-74 (stomach cancer), 700 nM; in the assay on MKN-45 (stomach cancer) it was 3000 nM. In assay [1], the “growth inhibitory effect on cultured human cancer cells” value (“growth inhibitory effect” below) is “strong growth inhibitory effect”.

As to `COc1cc(OC)cc(N(Cc2ccnc(-c3cc(OC)c(OC)c(OC)c3)c2)C2CCN(Cc3ccnc(-c4cc(OC)c(OC)c(OC)c4)c3)CC2)c1` [Example 23, 4-[N-(3,5-dimethoxyphenyl)-N-[[2-(3,4,5-trimethoxyphenyl)pyridin-4-yl]methyl]amino]-1-[[2-(3,4,5-trimethoxyphenyl)pyridin-4-yl]methyl]piperidine Trihydrochloride], the GI50 worked out at 600 nM with MCF-7 (breast cancer), 900 nM in the assay on HCT-15 (colon cancer), 700 nM with MKN-74 (stomach cancer) and 4000 nM in the assay on MKN-45 (stomach cancer). Besides, in assay [1], the “growth inhibitory effect” value is recorded as “strong growth inhibitory effect”.

As for `COc1cc(-c2cc(CN3CCC(N(Cc4ccnc(-c5cc(OC)c(OC)c(OC)c5)c4)c4ccc5c(c4)OCO5)CC3)ccn2)cc(OC)c1OC` [Example 29, 4-[N-(3,4-methylenedioxyphenyl)-N-[[2-(3,4,5-trimethoxyphenyl)pyridin-4-yl]methyl]amino]-1-[[2-(3,4,5-trimethoxyphenyl)pyridin-4-yl]methyl] piperidine Trihydrochloride], the GI50 came to 700 nM in the assay with MCF-7 (breast cancer), 800 nM in the assay on HCT-15 (colon cancer), 400 nM in the assay with MKN-74 (stomach cancer) and 3000 nM in the assay on MKN-45 (stomach cancer). In assay [1], the “growth inhibitory effect” value is “strong growth inhibitory effect”.

`COc1cc(-c2cc(CN3CCC(N(C)Cc4ccnc(-c5cc(OC)c(OC)c(OC)c5)c4)CC3)ccn2)cc(OC)c1OC` [Example 36, 4-[N-methyl-N-[[2-(3,4,5-trimethoxyphenyl)pyridin-4-yl]methyl]amino]-1-[[2-(3,4,5-trimethoxyphenyl)pyridin-4-yl]methyl]piperidine Tetrahydrochloride]: the concentration for 50% growth inhibition (GI50) was found to be 700 nM with MCF-7 (breast cancer), 1000 nM in the assay with HCT-15 (colon cancer), 600 nM with MKN-74 (stomach cancer) and 2000 nM with MKN-45 (stomach cancer). For the same compound, in assay [1], the “growth inhibitory effect” value was “strong growth inhibitory effect”.

As for `COc1cc(-c2cncc(CN(c3ccc(SC)cc3)C3CCN(Cc4ccnc(-c5cc(OC)c(OC)c(OC)c5)c4)CC3)c2)cc(OC)c1OC` [Example 114], the GI50 with MCF-7 (breast cancer) came to 600 nM; in the assay on HCT-15 (colon cancer) it was 800 nM; in the assay on MKN-74 (stomach cancer), 200 nM; with MKN-45 (stomach cancer), 2000 nM. The “growth inhibitory effect” value in assay [1] is recorded as “strong growth inhibitory effect”.

`CC(/C=C/C(=O)NO)=C\[C@@H](C)C(=O)c1ccc(N(C)C)cc1` [TSA, Trichostatin A, reference compound]: in assay [2] (TNFα 10 ng/mL, 4 h), the “mRNA expression level of ABC transporter B2” value came out at 66, the “mRNA expression level of B94” value is 924, the “mRNA expression level of BCL3” value came to 198 and the “mRNA expression level of Cox-2” value turned out to be 30. In assay [2] (TNFα 10 ng/mL, 4 h), the “mRNA expression level of EphrinA1” value stood at 113, the “mRNA expression level of Gro1” value is given as 855, the “mRNA expression level of I kappa B alpha” value is reported as 1363 and the “mRNA expression level of IAP homolog B” value stood at 99. Further, in assay [2] (TNFα 10 ng/mL, 4 h), the “mRNA expression level of ICAM-1” value was determined as 2303, the “mRNA expression level of IFNGR2” value is given as 209, the “mRNA expression level of IL-7R” value was 44 and the “mRNA expression level of M-Ras-regulated GEF” value is listed as 39. In addition, in assay [2] (TNFα 10 ng/mL, 4 h), the “mRNA expression level of MCP-1” value came to 46, the “mRNA expression level of Na/K-ATPase beta-1” value amounted to 148, the “mRNA expression level of Nef associated factor 1” value came out at 396 and the “mRNA expression level of OB-cadherin-2” value is recorded as 62. In assay [2] (TNFα 10 ng/mL, 4 h), the “mRNA expression level of RDC1” value amounted to 21, the “mRNA expression level of Spliceosomal Protein Sap 49” value stood at 79, the “mRNA expression level of TRAF1” value came out at 262 and the “mRNA expression level of VCAM-1” value amounted to 96. Moreover, in assay [2] (TNFα 10 ng/mL, 4 h), the “mRNA expression level of beta-galactoside alpha-2; 6-sialyltransferase” value is given as 19, the “mRNA expression level of caspase-like apoptosis regulatory protein 2 (clarp)” value was 50, the “mRNA expression level of cytoplasmic antiproteinase 2 (CAP2)” value is on record as 37 and the “mRNA expression level of ets-2” value was found to be 38. Further, in assay [2] (TNFα 10 ng/mL, 4 h), the “mRNA expression level of exodus-1” value was determined as 1206, the “mRNA expression level of fractalkine” value came to 38, the “mRNA expression level of junB” value came out at 123 and the “mRNA expression level of lymphotoxin beta” value is −40. In assay [2] (TNFα 10 ng/mL, 4 h), the “mRNA expression level of metalloproteinase stromelysin-2” value was found to be 69, the “mRNA expression level of ninjurin1” value is reported as 150 and the “mRNA expression level of p50-NF-kappa B homolog” value stood at 57. Also, in assay [2] (setting [3]), the “number of genes whose expression was enhanced” value was determined as 6 genes and the “number of genes whose expression was inhibited” value was 25 genes.

The record behind these values is patent US20050176764A1, “Medicine for treating cancer” (KOWA CO., LTD, priority 2002, published 2005).
